Test results taken from patent US20140220108A1, “COCHLEATE COMPOSITIONS AND METHODS OF MAKING AND USING SAME” (priority 2011, published 2014).
Values after ≈ are worked out from the molar mass of the structure shown. Read-outs that look alike come from different tables or passages of the source.

Columns and labels:
MAC 101 = experiment: MIC against susceptible M. avium strain MAC 101; settings: Mycobacterium avium, such as MAC 101
MAC184 strain = experiment: MIC against clarithromycin-resistant clinical isolate MAC184; parameters: species or system M. avium; settings: Mycobacterium avium
M. avium 101 [1] = experiment: M. avium 101-infected mouse peritoneal macrophages (Raw 264.7), intracellular bacteria after 4 days of treatment; format: cell-based, Mycobacterium avium
Description: (§1) Amikacin cochleate (Amkcch) formulations were optimized for amikacin encochleation efficiency and particle size by varying the type of PS used, the PS:drug ratio, PS:Ca ratio, and NaCl concentration. The efficacy of Amkcch against intracellular Ma infections was evaluated in vitro using mouse peritoneal macrophage infected with M. avium strains MAC 101 or MAC 109. Mouse peritoneal macrophages (Mo) Raw 264.7 cells were seeded at 10^5 cells/well. Mo monolayers were infected at ratio 1:10 for 1 h and extracellular bacteria removed. Monolayers were treated with free amikacin and/or cochleate preparations for 4 days and the number of intracellular bacteria determined. Assays were repeated three times.
(§2) The efficacy of Amkcch against, intracellular Ma infections was evaluated in vitro using mouse peritoneal macrophage infected with M. avium strains MAC 101 or MAC 109. Mouse peritoneal macrophages (Mo) Raw 264.7 cells were seeded at 10^5 cells/well. Mo monolayers were infected at ratio 1:10 for 1 hour and extracellular bacteria removed. Monolayers were treated with free amikacin and/or cochleate preparations for 4 days and the number of intracellular bacteria determined. Assays were repeated three times.
The cochleate preparations used to evaluate biological activity against Mycobacterium avium in vitro included: 1. 2.0 ml/vial of 0 M NaCl amikacin formulation with 0.5 mg/ml; 2. 2.0 ml/vial of 0.066M NaCl amikacin formulation with 0.5 mg/ml; 3. 2.0 ml/vial of 0.33M NaCl amikacin formulation with 0.5 mg/ml; 4. 2.0 ml/vial of 0.66M NaCl amikacin formulation with 0.5 mg/ml; 5. 2.0 ml/vial of 0 M NaCl placebo formulation with 5 mg PS/ml; 6. 2.0 ml/vial of placebo formulation plus amikacin with 0.5 mg/ml; and 7. 2.0 ml/vial of free amikacin in water with 0.5 mg/ml.

M. avium 101 [2] = experiment: Splenic bacterial counts in M. avium 101-infected C57BL/6 mice; format: in vivo, Mycobacterium avium; settings: 1 mg amikacin/mouse/day, 2 weeks, 3 weeks infected control 7.8 ± 0.4 × 10^7
F. tularensis LVS = format: cell-based, Francisella tularensis; settings: no treatment 3.0 ± 0.3 × 10^6
M. avium 109 = experiment: M. avium 109-infected mouse peritoneal macrophages (Raw 264.7), intracellular bacteria after 4 days of treatment; format: cell-based, Mycobacterium avium; settings: inoculum 2.4 ± 0.3 × 10^5, untreated 3.1 ± 0.6 × 10^6
Description: as §1, §2
The cochleate preparations used to evaluate biological activity against Mycobacterium avium in vitro included: 1. 2.0 ml/vial of 0 M NaCl amikacin formulation with 0.5 mg/ml; 2. […]

M. avium = settings: cited from earlier work
[3] = Encochleation efficiency by lipid composition, drug in supernatant after centrifugation; format: physicochemical; settings: independent of the lipid composition of the PS vesicles
Description: For example, incorporation of phosphatidylserine (PS) combined with 99.9% pure dioleoyl PS, 99.9% pure soy PS, 75% soy PS and 50% soy PS, were used to manufacture cochleates. The lipid composition of 99.9% pure PS was modified by the addition of sphingomyelin, phosphatidylcholine and/or cholesterol. Encochleation efficiency was determined by assaying the concentration of drug in the supernatant following centrifugation.

CC[C@@H](CO)NCCN[C@@H](CC)CO [ethambutol]
MIC (MAC 101): 4 µg/mL (≈ 19.6 µM)
MIC (MAC184 strain): 8 µg/mL (≈ 39.2 µM)

NCC[C@H](O)C(=O)N[C@@H]1C[C@H](N)[C@@H](O[C@H]2O[C@H](CN)[C@@H](O)[C@H](O)[C@H]2O)[C@H](O)[C@H]1O[C@H]1O[C@H](CO)[C@@H](O)[C@H](N)[C@H]1O [Free amikacin, amikacin]
# bacteria day 4 (M. avium 101 [1]; 20 μg/l, inoculum 3.8 ± 0.4 × 10^5, untreated 4.9 ± 0.5 × 10^6): 3.8 ± 0.5 × 10^4
# bacteria day 4 (M. avium 101 [1]; inoculum 3.8 ± 0.4 × 10^5, untreated 4.9 ± 0.5 × 10^6): 4.9 ± 0.3 × 10^4
CFU/spleen (M. avium 101 [2]; I.P.): 9.3 ± 0.4 × 10^6 CFU/spleen
CFU/spleen (M. avium 101 [2]; oral): 6.9 ± 0.3 × 10^7 CFU/spleen
intracellular bacteria Day 4 (F. tularensis LVS; amikacin 4 μg/ml): 7.6 ± 0.3 × 10^2 CFU/ml
# bacteria day 4 (M. avium 109; 10 μg/l): 5.0 ± 0.3 × 10^4
# bacteria day 4 (M. avium 109; 20 μg/l): 2.9 ± 0.4 × 10^4
frequency of resistance (M. avium): 10^−11

C[C@@H]1[C@H](O)[C@@H](C)/C=C/C=C/C=C/C=C/C=C/C=C/C=C/[C@H](O[C@@H]2O[C@H](C)[C@@H](O)[C@H](N)[C@@H]2O)C[C@@H]2O[C@](O)(C[C@@H](O)C[C@@H](O)[C@H](O)CC[C@@H](O)C[C@@H](O)CC(=O)O[C@H]1C)C[C@H](O)[C@H]2C(=O)O [AmB, Amphotericin B]
encochleation efficiency [3]: greater than 85%

gentamicin [Free gentamicin]
# bacteria day 4 (M. avium 101 [1]; gentamicin 30 μg/ml (30 μg/l in two rows), untreated 6.4 ± 0.5 × 10^6): 1.9 ± 0.3 × 10^5
intracellular bacteria Day 4 (F. tularensis LVS; gentamicin 2 μg/ml): 9.3 ± 0.3 × 10^2 CFU/ml
